Experimental data: US5773411A, “Cyclic compounds linked by a heterocyclic ring useful as inhibitors of platelet glycoprotein IIB/IIIA” (The DuPont Merck Pharmaceutical Company, priority 1994, dated 1998)

Test system: agonist-induced platelet aggregation in platelet-rich plasma (PRP)
Experiment: Platelet Aggregation Assay
Format: cell-based
Conditions: human PRP; agonists ADP, collagen, arachidonate, epinephrine, thrombin; compound added prior to activation of the platelets
Procedure: Platelet Aggregation Assay
Venous blood was obtained from the arm of a healthy human donor who was drug-free and aspirin-free for at least two weeks prior to blood collection. Blood was collected into 10 ml citrated Vacutainer tubes. The blood was centrifuged for 15 minutes at 150×g at room temperature, and platelet-rich plasma (PRP) was removed. The remaining blood was centrifuged for 15 minutes at 1500×g at room temperature, and platelet-poor plasma (PPP) was removed. Samples were assayed on a aggregometer (PAP-4 Platelet Aggregation Profiler), using PPP as the blank (100% transmittance). 200 μl of PRP was added to each micro test tube, and transmittance was set to 0%. 20 μl of various agonists (ADP, collagen, arachidonate, epinephrine, thrombin) were added to each tube, and the aggregation profiles were plotted (% transmittance versus time). The results were expressed as % inhibition of agonist-induced platelet aggregation. For the IC50 evaluation, the test compounds were added at various concentrations prior to the activation of the platelets.

Compound	IC50 [nM]
CC(C)[C@H]1NC(=O)C2=CC=C(CNC(=O)[C@H](CC(=O)O)NC(=O)CNC(=O)[C@H](CCCNC(=N)N)N(C)C1=O)O2 [Example 1, cyclo-(D-Val-N(Me)Arg-Gly-Asp-[5-aminomethyl]-2-furoate)]	< 1000
CC(C)[C@H]1NC(=O)c2cccc(n2)CNC(=O)[C@H](CC(=O)O)NC(=O)CNC(=O)[C@H](CCCNC(=N)N)N(C)C1=O [Example 3, cyclo(6-(D-Val-NMeArg-Gly-Asp)aminomethyl-2-pyridinecarboxylate)]	1000 to 10000
cyclo-(D-Val-N(Me)Arg-Gly-Asp-[2-amino]-4-thiazoleacetate) [Example 4]	< 1000
